Measured values as given in US9134313B2, “Method of detecting colorectal cancer of stages 0 to I” (Tokyo Metropolitan Organization For Medical Research, priority 2003, dated 2015).

Test system: anti-DiAcSpm antibody Code No. NZW 2
Experiment: Cross-reactivity of affinity-purified anti-DiAcSpm antibody with urinary DiAcSpm analogues
Type: binding, rabbit
Details: for Cross-reactivity (1)x(2) %: cross-reactivity multiplied by abundance in urine: interference on urinary DiAcSpm determination; for KiDiAcSpm/Ki"s"(%) (1): cross-reactivity of antibody NZW 2 with each polyamine, DiAcSpm = 100
From the text: The antibody of the invention has one or both of the following properties: (i) its cross-reactivity with N^1-AcSpd (which is present in urine as a DiAcSpm analogue in an amount about 30-times greater than DiAcSpm) is 0.1% or less; (ii) total interference on the measurement results caused by its cross-reaction with DiAcSpm analogues present in urine is 5% or less. The numerical value mentioned in (i) above is a value showing the nature of the antibody. The numerical value mentioned in (ii) above is a value obtained by multiplying cross-reactivity itself by the abundance of these analogues in urine; this value can be an indicator showing how much interference these analogues would give actually on the quantitative determination of DiAcSpm.
Step-wise affinity purification was carried out to examine whether specific antibodies with sufficient purity applicable to a urinary DiAcSpm measuring system can be obtained. The affinity purification was carried out step-wise based on the method of Kawakita et al. (Hiramatsu, K. et al., J. Biochem., 124, 231-236 (1998)), using DiAcSpm column and DiSpd column prepared by derivatizing carboxy-Toyopearl with AcSpm and N8-AcSpd (FIG. 3).
Further, the total interference on the measurement results caused by the cross-reaction of this antibody with DiAcSpm analogues present in urine was 2.9%; thus, cross-reactivity of 5% or less was achieved (FIG. 4, Table 3).

| KiDiAcSpm/Ki"s"(%) (1) | Structure (SMILES) | Cross-reactivity (1)x(2) % [%] | KiDiAcSpm/Ki"s"(%) (1) (listed as N^1-AcSpd) |
| --- | --- | --- | --- |
| 0.418 | CC(=O)NCCCNCCCCNCCCN [AcSpm, monoacetylspermine] | 0.131 | – |
| 0.032 | CC(=O)NCCCCNCCCNC(C)=O [DiAcSpd, N^1,N^8-diacetylspermidine] | 0.094 | – |
| 100 | CC(=O)NCCCNCCCCNCCCNC(C)=O [DiAcSpm, N^1,N^12-diacetylspermine] | 100 | – |

| Structure (SMILES) | KiDiAcSpm/Ki"s"(%) (1) | Cross-reactivity (1)x(2) % [%] | KiDiAcSpm/Ki"s"(%) (1) (listed as N^1-AcSpd) |
| --- | --- | --- | --- |
| CC(=O)NCCCNCCCCN [N1-AcSpd, N^1-Ac-Spermidine] | 0.100 | 2.65 | ≤ 0.1 |
| CC(=O)NCCCCNCCCN [N8-AcSpd, N^8-Ac-Spermidine] | 0.001 | 0.024 | – |
